Experiments:
Format in all cases: ADME, organism-based
[1] = Oral bioavailability in rat; details: in vivo
[2] = Compound was evaluated for plasma half life in rat
[3] = Compound was evaluated for plasma clearance in rat; details: read-out: Clp
[4] = Compound was evaluated for volume of distribution in rat; details: in vivo

Row | Structure (SMILES) | bioavailability [1] | half-life [2] | clearance [3] | Vd [4]
1 | CCCCc1nn(CC2CC2)c(C(=O)O)c1Cc1ccc(-c2ccccc2-c2nn[nH]n2)cc1 | 58% | 12.3 h | 0.2 mL/min/kg | 0.2 L/kg
2 | CCCCc1nn(CCCC)c(C(=O)O)c1Cc1ccc(-c2ccccc2-c2nn[nH]n2)cc1 | 26% | 14.8 h | 0.12 mL/min/kg | 0.16 L/kg

Source: ChEMBL document CHEMBL1127865, “C-linked pyrazole biaryl tetrazoles as antagonists of angiotensin II Part II: pharmacokinetics and an efficient regioselective synthesis” (Bioorg Med Chem Lett, 1994)
